In ChEMBL document CHEMBL4800723, “Data for DCP probe BI-1942” (2021):

Columns and labels:
[1] = target: Beta-3 adrenergic receptor (Homo sapiens) (UniProt P13945); conditions: Compound concentration 10.0 uM
[2] = target: Tyrosine-protein kinase Lck (Homo sapiens) (UniProt P06239); experiment: LCK_CE Eurofins SafetyScreen44 (BI); conditions: Compound concentration 10.0 uM
[3] = target: Endothelin-converting enzyme 1 (Homo sapiens) (UniProt P42892); experiment: ECE(H) Eurofins SafetyScreen44 (BI); conditions: Compound concentration 10.0 uM
[4] = target: GABA-A receptor; anion channel (Rattus norvegicus) (UniProt O09028+P15431+P18506+P18508+P19969+P20236+P23574+P23576+P28471+P28473+P30191+P62813+P63079+P63138+Q91ZM7+Q9ES14); conditions: Compound concentration 10.0 uM
[5] = target: 5-hydroxytryptamine receptor 1D (Homo sapiens, UniProt P28221); conditions: Compound concentration 10.0 uM
[6] = target: D(1A) dopamine receptor (Homo sapiens) (UniProt P21728); conditions: Compound concentration 10.0 uM
Rattus norvegicus = species: Rattus norvegicus; conditions: Compound concentration 10.0 uM
[7] = target: Cathepsin E (Homo sapiens) (UniProt P14091); experiment: CATHEPSINE Eurofins SafetyScreen44 (BI); conditions: Mus musculus; Compound concentration 10.0 uM
[8] = target: Macrophage metalloelastase (Homo sapiens) (UniProt P39900); experiment: MMP-12 Eurofins SafetyScreen44 (BI); conditions: Compound concentration 10.0 uM
[9] = target: D(2) dopamine receptor (Homo sapiens) (UniProt P14416); conditions: Compound concentration 10.0 uM
[10] = target: Prostaglandin G/H synthase 1 (Homo sapiens) (UniProt P23219); experiment: COX-1 Eurofins SafetyScreen44 (BI); conditions: Compound concentration 10.0 uM
[11] = target: Sodium-dependent serotonin transporter (Homo sapiens) (UniProt P31645); conditions: Compound concentration 10.0 uM
[12] = target: 5-hydroxytryptamine receptor 1B (Homo sapiens) (UniProt P28222); conditions: Compound concentration 10.0 uM
[13] = target: 5-hydroxytryptamine receptor 3A (Homo sapiens) (UniProt P46098); conditions: Compound concentration 10.0 uM
[14] = target: Alpha-2A adrenergic receptor (Homo sapiens) (UniProt P08913); experiment: ALPHA2A/HU Eurofins SafetyScreen44 (BI); conditions: Compound concentration 10.0 uM
[15] = target: Histamine H1 receptor (Homo sapiens) (UniProt P35367); experiment: H1/PYRIL/HS Eurofins SafetyScreen44 (BI); conditions: Compound concentration 10.0 uM
[16] = target: 5-hydroxytryptamine receptor 2B (Homo sapiens) (UniProt P41595); experiment: 5HT2B/H AG Eurofins SafetyScreen44 (BI); conditions: filed as agonist, Compound concentration 10.0 uM
[17] = target: Glucocorticoid receptor (Homo sapiens) (UniProt P04150); experiment: GCORTICOID/H Eurofins SafetyScreen44 (BI); conditions: Compound concentration 10.0 uM
[18] = target: Prothrombin (Homo sapiens) (UniProt P00734); experiment: THROMBIN Eurofins SafetyScreen44 (BI); conditions: Compound concentration 10.0 uM
[19] = target: Androgen receptor (Homo sapiens) (UniProt P10275); experiment: ANDROGEN/H Eurofins SafetyScreen44 (BI); conditions: Compound concentration 10.0 uM
[20] = target: Histamine H2 receptor (Homo sapiens) (UniProt P25021); conditions: Compound concentration 10.0 uM
[21] = target: 3',5'-cyclic-AMP phosphodiesterase 4D (Homo sapiens) (UniProt Q08499); experiment: PDE4D2 Eurofins SafetyScreen44 (BI); conditions: Compound concentration 10.0 uM
[22] = target: Proteinase-activated receptor 1 (Homo sapiens) (UniProt P25116); experiment: PAR1(H)AGON Eurofins SafetyScreen44 (BI); conditions: filed as agonist, Compound concentration 10.0 uM
[23] = target: Prostaglandin G/H synthase 2 (Homo sapiens) (UniProt P35354); experiment: COX-2 Eurofins SafetyScreen44 (BI); conditions: Compound concentration 10.0 uM
[24] = target: Procathepsin L (Homo sapiens) (UniProt P07711); experiment: CATHEPSIN-L Eurofins SafetyScreen44 (BI); conditions: Compound concentration 10.0 uM
[25] = target: Sodium-dependent serotonin transporter (Homo sapiens) (UniProt P31645); experiment: SLC6A4/H Eurofins SafetyScreen44 (BI); conditions: filed as antagonist, Compound concentration 10.0 uM
[26] = target: Beta-1 adrenergic receptor (Homo sapiens) (UniProt P08588); experiment: BETA1/HUM Eurofins SafetyScreen44 (BI); conditions: Compound concentration 10.0 uM
[27] = target: 5-hydroxytryptamine receptor 5A (Homo sapiens) (UniProt P47898); conditions: Compound concentration 10.0 uM
[28] = target: Adenosine receptor A2a (Homo sapiens) (UniProt P29274); experiment: A2A/H Eurofins SafetyScreen44 (BI); conditions: filed as antagonist, Compound concentration 10.0 uM
[29] = target: Cathepsin D (Homo sapiens) (UniProt P07339); experiment: CATHEPSIND Eurofins SafetyScreen44 (BI); conditions: Compound concentration 10.0 uM
[30] = target: Muscarinic acetylcholine receptor M1 (Homo sapiens) (UniProt P11229); conditions: Compound concentration 10.0 uM
[31] = target: cGMP-inhibited 3',5'-cyclic phosphodiesterase 3A (Homo sapiens) (UniProt Q14432); experiment: PDE3A Eurofins SafetyScreen44 (BI); conditions: Compound concentration 10.0 uM
[32] = target: Angiotensin-converting enzyme (Homo sapiens) (UniProt P12821); experiment: ACE(HU) Eurofins SafetyScreen44 (BI); conditions: Compound concentration 10.0 uM
hERG (KCNH2) = hERG (KCNH2) (Homo sapiens, UniProt Q12809); experiment: HERG_DOFETILIDE Eurofins SafetyScreen44 (BI); design: mode of action inhibitor; conditions: probe [3H] Dofetilide, compound concentration 10 uM, read-out: % Ctrl
[33] = target: Muscarinic acetylcholine receptor M5 (Homo sapiens) (UniProt P08912); conditions: Compound concentration 10.0 uM
[34] = target: Sodium-dependent noradrenaline transporter (Homo sapiens) (UniProt P23975); experiment: NEUP/H Eurofins SafetyScreen44 (BI); conditions: Compound concentration 10.0 uM
[35] = target: Glutamate NMDA receptor (Rattus norvegicus) (UniProt P35439+Q00959+Q00960+Q00961+Q62645+Q8VHN2+Q9R1M7); experiment: NMDA/R Eurofins SafetyScreen44 (BI); format: protein-complex assay; conditions: Compound concentration 10.0 uM
[36] = target: Angiotensin-converting enzyme 2 (Homo sapiens) (UniProt Q9BYF1); experiment: ACE-2(HU) Eurofins SafetyScreen44 (BI); conditions: Compound concentration 10.0 uM
[37] = target: Dipeptidyl peptidase 4 (Homo sapiens) (UniProt P27487); experiment: DIPEPTIDYLPEPTIDASE Eurofins SafetyScreen44 (BI); conditions: Compound concentration 10.0 uM
[38] = target: Histamine H3 receptor (Homo sapiens) (UniProt Q9Y5N1); conditions: Compound concentration 10.0 uM
[39] = target: Cathepsin G (Homo sapiens) (UniProt P08311); experiment: CATHEPSG(H) Eurofins SafetyScreen44 (BI); conditions: Compound concentration 10.0 uM
[40] = target: Alpha-2C adrenergic receptor (Homo sapiens) (UniProt P18825); conditions: Compound concentration 10.0 uM
[41] = target: Histamine H2 receptor (Homo sapiens) (UniProt P25021); experiment: H2/APT/HS Eurofins SafetyScreen44 (BI); conditions: filed as antagonist, Compound concentration 10.0 uM
[42] = target: Human immunodeficiency virus type 1 protease (Human immunodeficiency virus 1) (UniProt Q72874); experiment: HIV-1/H Eurofins SafetyScreen44 (BI); conditions: Compound concentration 10.0 uM

Sequence of Histamine H2 receptor (Homo sapiens) (P25021 whole entry): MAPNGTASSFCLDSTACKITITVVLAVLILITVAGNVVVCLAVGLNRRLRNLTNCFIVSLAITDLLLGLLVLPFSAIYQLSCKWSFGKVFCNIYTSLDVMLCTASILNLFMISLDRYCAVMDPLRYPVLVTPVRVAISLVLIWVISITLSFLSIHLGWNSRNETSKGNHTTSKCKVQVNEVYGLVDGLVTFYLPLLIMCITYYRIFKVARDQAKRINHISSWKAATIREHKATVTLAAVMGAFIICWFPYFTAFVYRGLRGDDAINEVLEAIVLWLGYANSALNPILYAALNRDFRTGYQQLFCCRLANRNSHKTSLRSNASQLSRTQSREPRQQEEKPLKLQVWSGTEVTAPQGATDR
Sequence of Sodium-dependent serotonin transporter (Homo sapiens) (P31645 whole entry, looked up): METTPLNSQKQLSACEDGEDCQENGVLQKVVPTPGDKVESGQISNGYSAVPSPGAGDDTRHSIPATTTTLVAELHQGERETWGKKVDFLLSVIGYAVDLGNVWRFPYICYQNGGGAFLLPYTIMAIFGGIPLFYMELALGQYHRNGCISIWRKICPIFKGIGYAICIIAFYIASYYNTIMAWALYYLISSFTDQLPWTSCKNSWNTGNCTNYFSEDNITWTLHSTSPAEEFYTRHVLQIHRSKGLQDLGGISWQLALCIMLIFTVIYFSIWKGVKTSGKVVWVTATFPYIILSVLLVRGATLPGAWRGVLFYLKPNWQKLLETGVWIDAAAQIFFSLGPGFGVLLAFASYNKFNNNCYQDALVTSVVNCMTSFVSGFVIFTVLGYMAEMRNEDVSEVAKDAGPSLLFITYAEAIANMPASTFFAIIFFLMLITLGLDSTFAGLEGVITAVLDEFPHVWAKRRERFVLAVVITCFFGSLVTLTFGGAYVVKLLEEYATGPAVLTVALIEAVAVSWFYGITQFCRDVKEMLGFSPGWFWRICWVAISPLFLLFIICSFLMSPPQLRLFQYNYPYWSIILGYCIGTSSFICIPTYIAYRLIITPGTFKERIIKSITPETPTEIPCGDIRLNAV
Sequence of Prostaglandin G/H synthase 1 (Homo sapiens) (P23219 whole entry): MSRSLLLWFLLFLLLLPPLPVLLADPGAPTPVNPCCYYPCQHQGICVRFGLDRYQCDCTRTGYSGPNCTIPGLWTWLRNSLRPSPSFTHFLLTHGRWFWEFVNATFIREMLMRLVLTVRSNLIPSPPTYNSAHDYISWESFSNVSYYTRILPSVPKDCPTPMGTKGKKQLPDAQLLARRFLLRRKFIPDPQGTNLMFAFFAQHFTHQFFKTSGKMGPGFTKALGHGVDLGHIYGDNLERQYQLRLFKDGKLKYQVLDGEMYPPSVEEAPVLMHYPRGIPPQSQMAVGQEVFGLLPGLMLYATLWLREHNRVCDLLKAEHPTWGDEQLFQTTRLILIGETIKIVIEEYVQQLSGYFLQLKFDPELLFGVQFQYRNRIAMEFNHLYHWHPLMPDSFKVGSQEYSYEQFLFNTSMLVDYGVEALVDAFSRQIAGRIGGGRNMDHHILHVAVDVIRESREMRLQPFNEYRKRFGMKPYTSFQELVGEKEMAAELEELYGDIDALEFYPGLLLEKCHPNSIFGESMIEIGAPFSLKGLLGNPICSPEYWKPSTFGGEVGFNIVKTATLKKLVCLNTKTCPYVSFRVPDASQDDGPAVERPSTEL
Sequence of Alpha-2C adrenergic receptor (Homo sapiens) (P18825 whole entry): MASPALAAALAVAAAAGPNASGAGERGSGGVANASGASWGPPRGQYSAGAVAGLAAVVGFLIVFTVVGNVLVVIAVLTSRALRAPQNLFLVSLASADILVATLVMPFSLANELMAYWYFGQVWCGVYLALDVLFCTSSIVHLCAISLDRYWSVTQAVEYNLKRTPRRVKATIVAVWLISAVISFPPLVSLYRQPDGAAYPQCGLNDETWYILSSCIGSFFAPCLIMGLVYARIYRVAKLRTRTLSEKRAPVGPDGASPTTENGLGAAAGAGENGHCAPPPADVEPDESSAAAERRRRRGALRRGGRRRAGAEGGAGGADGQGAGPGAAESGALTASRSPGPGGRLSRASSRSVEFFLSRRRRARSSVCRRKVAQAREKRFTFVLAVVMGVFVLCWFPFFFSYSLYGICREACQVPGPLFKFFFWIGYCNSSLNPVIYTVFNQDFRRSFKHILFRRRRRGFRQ
Sequence of Alpha-2A adrenergic receptor (Homo sapiens) (P08913 whole entry): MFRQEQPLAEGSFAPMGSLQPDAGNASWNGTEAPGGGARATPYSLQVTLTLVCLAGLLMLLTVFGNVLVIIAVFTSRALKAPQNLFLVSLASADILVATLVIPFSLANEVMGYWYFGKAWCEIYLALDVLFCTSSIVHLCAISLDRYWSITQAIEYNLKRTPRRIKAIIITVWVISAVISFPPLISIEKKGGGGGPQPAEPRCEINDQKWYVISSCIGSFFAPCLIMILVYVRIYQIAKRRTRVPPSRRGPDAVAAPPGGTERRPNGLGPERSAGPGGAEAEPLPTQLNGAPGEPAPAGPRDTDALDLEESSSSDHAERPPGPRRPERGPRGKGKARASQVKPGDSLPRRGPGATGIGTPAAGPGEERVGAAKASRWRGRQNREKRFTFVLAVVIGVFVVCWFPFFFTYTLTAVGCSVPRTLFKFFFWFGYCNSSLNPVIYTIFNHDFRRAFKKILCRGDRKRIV
Sequence of Muscarinic acetylcholine receptor M5 (Homo sapiens) (P08912 whole entry): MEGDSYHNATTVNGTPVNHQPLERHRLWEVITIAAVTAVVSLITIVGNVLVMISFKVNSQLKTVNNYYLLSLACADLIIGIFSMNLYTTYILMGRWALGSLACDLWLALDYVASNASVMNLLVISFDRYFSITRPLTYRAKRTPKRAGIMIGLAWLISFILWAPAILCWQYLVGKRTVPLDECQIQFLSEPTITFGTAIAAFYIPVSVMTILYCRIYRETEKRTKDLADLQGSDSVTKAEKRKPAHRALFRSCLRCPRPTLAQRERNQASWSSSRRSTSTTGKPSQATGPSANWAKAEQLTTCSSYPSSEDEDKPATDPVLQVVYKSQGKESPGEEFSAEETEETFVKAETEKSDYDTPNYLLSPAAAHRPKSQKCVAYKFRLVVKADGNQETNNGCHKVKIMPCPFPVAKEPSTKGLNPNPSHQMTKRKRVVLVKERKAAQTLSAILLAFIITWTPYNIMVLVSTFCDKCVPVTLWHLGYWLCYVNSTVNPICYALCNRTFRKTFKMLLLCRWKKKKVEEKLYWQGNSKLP
Sequence of Proteinase-activated receptor 1 (Homo sapiens) (P25116 whole entry): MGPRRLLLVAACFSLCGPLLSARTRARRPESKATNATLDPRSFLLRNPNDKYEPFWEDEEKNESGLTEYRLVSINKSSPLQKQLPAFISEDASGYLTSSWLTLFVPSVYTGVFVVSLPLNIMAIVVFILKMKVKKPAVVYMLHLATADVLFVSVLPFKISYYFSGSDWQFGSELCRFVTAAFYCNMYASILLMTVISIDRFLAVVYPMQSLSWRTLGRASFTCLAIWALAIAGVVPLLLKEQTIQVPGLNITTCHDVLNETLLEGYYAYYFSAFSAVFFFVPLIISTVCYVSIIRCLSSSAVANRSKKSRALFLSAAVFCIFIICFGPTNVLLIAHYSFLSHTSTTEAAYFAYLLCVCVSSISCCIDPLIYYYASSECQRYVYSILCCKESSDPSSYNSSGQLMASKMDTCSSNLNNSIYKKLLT
Sequence of Angiotensin-converting enzyme (Homo sapiens) (P12821 whole entry): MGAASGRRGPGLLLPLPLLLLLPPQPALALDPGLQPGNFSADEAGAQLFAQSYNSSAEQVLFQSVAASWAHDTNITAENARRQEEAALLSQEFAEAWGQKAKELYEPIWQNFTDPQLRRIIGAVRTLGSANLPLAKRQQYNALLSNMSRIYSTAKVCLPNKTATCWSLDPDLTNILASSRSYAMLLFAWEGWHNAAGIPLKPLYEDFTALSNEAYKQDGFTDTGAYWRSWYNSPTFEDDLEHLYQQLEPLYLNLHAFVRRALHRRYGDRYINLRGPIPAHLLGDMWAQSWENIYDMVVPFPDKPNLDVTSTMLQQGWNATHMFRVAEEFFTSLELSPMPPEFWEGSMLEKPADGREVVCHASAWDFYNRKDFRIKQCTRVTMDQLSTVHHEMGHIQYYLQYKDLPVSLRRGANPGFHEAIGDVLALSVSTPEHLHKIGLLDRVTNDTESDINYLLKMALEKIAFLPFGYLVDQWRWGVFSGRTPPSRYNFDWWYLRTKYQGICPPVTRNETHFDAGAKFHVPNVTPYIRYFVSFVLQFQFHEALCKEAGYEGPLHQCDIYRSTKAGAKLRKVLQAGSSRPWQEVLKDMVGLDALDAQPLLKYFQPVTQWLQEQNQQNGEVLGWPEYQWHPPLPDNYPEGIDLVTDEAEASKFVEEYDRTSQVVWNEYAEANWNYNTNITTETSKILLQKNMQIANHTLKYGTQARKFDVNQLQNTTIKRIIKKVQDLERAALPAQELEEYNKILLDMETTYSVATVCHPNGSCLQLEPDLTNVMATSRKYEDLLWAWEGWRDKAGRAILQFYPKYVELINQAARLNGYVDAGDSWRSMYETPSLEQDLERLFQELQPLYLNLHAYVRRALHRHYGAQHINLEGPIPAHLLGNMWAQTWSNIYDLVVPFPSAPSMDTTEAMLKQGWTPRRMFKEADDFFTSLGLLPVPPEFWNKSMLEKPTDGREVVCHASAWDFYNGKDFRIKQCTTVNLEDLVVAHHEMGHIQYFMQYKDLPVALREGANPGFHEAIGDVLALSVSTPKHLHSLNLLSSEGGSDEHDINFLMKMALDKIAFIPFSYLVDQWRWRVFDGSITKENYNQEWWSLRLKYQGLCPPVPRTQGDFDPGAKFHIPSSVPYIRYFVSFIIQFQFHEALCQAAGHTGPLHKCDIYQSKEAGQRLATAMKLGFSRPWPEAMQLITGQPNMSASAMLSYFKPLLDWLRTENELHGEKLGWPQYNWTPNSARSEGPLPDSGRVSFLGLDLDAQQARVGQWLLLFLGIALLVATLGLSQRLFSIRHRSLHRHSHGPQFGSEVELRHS
Sequence of Procathepsin L (Homo sapiens) (P07711 114-333 limits assumed): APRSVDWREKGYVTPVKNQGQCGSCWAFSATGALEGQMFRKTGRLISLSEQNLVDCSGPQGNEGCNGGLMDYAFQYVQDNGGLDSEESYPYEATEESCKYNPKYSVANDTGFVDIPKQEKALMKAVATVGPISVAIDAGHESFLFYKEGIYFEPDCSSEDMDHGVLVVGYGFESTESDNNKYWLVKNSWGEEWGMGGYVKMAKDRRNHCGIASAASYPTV

CC[C@H](CC(=O)O)n1c(=O)c2ncccc2n(Cc2cn(C)c3cc(C)cc(C)c23)c1=O [BI-1942] was tested, and the inhibition [1] was -6.54%, the residual activity [2] was 103% and the residual activity [3] was 82%. The inhibition [4] was 6.86%, the inhibition [5] was 52.9% and the inhibition [6] was 20.3%. The inhibition (Rattus norvegicus) was 12.2%, the residual activity [7] was 106% and the residual activity [8] was 104%. It also gave an inhibition [9] of 0.91%, a residual activity [10] of 134% and an inhibition [11] of 4.96%. It also gave an inhibition [12] of 5.01%, an inhibition [13] of 0.31% and a residual activity [14] of 90%. The residual activity [15] was 100%, the residual activity [16] was 100% and the residual activity [17] was 107%. For the same molecule, the residual activity [18] was 102%, the residual activity [19] was 115% and the inhibition [20] was -4.71%. It also gave a residual activity [21] of 106%, a residual activity [22] of 100% and a residual activity [23] of 101%. For the same molecule, the residual activity [24] was 99%, the residual activity [25] was 86% and the residual activity [26] was 105%. It also gave an inhibition [27] of 5.71%, a residual activity [28] of 98% and a residual activity [29] of 118%. For the same molecule, the inhibition [30] was 8.69%, the residual activity [31] was 94% and the residual activity [32] was 127%. The activity at 10 µM (hERG (KCNH2)) was 105% (not active), the inhibition [33] was 8.73% and the residual activity [34] was 102%. For the same molecule, the residual activity [35] was 113%, the residual activity [36] was 127% and the residual activity [37] was 107%. For the same molecule, the inhibition [38] was 3.32%, the residual activity [39] was -2% and the inhibition [40] was 13.8%. For the same molecule, the residual activity [41] was 114% and the residual activity [42] was 111%.
